Measurements taken from US5488060A, “Substituted thiadiazoles, compositions containing them and their use as antimicrobial and marine antifouling agents” (The Dow Chemical Company, priority 1994, dated 1996).
Values after ≈ are worked out from the molar mass of the structure shown. Where two headings read alike, the source gives them in different places.

Key:
Assay type in all cases: cell-based
[1] = test system: Bacillus subtilis (Bs); assay: Minimum inhibitory concentration (MIC) in nutrient agar, Bacillus subtilis
In short: (§1)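 Bacteria were grown 24 h at 30° C in nutrient broth with shaking, then diluted to 10^8 CFU/mL. These suspensions were stamped onto dried nutrient agar plates, neutral (pH 6.8) and alkaline (pH 8.2), that held compound at final 500–1.0 ppm. The plates were incubated 48 h at 30° C.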

[2] = test system: Enterobacter aerogenes (Ea); assay: Minimum inhibitory concentration (MIC) in nutrient agar, Enterobacter aerogenes; details: Klebsiella aerogenes, 48 h
In short: as §1

[3] = test system: Candida albicans (Ca); assay: Minimum inhibitory concentration (MIC) in malt yeast agar, Candida albicans
In short: (§2)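 Malt yeast agar pH 5.5 + cpd (from 1% soln in acetone/water) at final 500–zero ppm, poured at 48 °C, dried 24 h. Inoculum: 7-day 30 °C slants suspended in saline/octylphenoxy polyethoxy ethanol, diluted 1:9, replicator-spotted. Incubated 30 °C; read 48 h yeast, 72 h fungi.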

[4] = test system: Escherichia coli (Ec); assay: Minimum inhibitory concentration (MIC) in nutrient agar, Escherichia coli
In short: as §1

[5] = test system: Pseudomonas aeruginosa (Pa); assay: Minimum inhibitory concentration (MIC) in nutrient agar, Pseudomonas aeruginosa; details: 30° C., 48 hours, read-out: Minimum Inhibitory Concentration, Pa
In short: as §1

[6] = test system: Proteus vulgaris (Pv); assay: Minimum inhibitory concentration (MIC) in nutrient agar, Proteus vulgaris; details: 48 h
In short: as §1

[7] = test system: Trichoderma viride (Tv); assay: Minimum inhibitory concentration (MIC) in malt yeast agar, Trichoderma viride
In short: (§3)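 Plates of pH 5.5 malt yeast agar carried test compound dispersed from a one percent acetone–water solution, final 500 to zero ppm. After diluted slant-culture suspensions were applied, plates were kept at 30 °C and examined at 72 h for fungi, 48 h for yeast.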

[8] = test system: Pseudomonas aeruginosa (PRD-10); assay: Minimum inhibitory concentration (MIC) in nutrient agar, Pseudomonas aeruginosa PRD-10
In short: as §1

[9] = test system: Klebsiella pneumoniae (Kp); assay: Minimum inhibitory concentration (MIC) in nutrient agar, Klebsiella pneumoniae
In short: as §1

[10] = test system: Saccharomyces cerevisiae (Sc); assay: Minimum inhibitory concentration (MIC) in malt yeast agar, Saccharomyces cerevisiae; details: pH 5.5, malt yeast agar, 30° C., 48 hours for yeast, read-out: Minimum Inhibitory Concentration, SC
In short: as §2

[11] = test system: Aureobasidium pullulan (Ap); assay: Minimum inhibitory concentration (MIC) in malt yeast agar, Aureobasidium pullulan; details: pH 5.5; malt yeast agar, 30° C.; read-out: Minimum Inhibitory Concentration, Ap
In short: as §3

[12] = test system: Penicillium chrysogenum (Pc); assay: Minimum inhibitory concentration (MIC) in malt yeast agar, Penicillium chrysogenum; details: pH 5.5; malt yeast agar, 30° C., 72 hours for fungi; read-out: Minimum Inhibitory Concentration, PC
In short: as §3

[13] = test system: Fusarium oxysporum (Fo); assay: Minimum inhibitory concentration (MIC) in malt yeast agar, Fusarium oxysporum
In short: as §3

[14] = test system: Salmonella choleraesuis (Se); assay: Minimum inhibitory concentration (MIC) in nutrient agar, Salmonella choleraesuis; details: Salmonella enterica, 48 h
In short: as §1

[15] = test system: Staphylococcus aureus (Sa); assay: Minimum inhibitory concentration (MIC) in nutrient agar, Staphylococcus aureus
In short: as §1

[16] = test system: Aspergillus niger (An); assay: Minimum inhibitory concentration (MIC) in malt yeast agar, Aspergillus niger; details: pH 5.5; malt yeast agar, 30° C., 72 hours for fungi; read-out: Minimum Inhibitory Concentration, An
In short: as §3

[17] = pH 6.8, read-out: Minimum Inhibitory Concentration, Ea
[18] = pH 8.2, read-out: Minimum Inhibitory Concentration, Ea
[19] = 48 h, pH 5.5, read-out: Minimum Inhibitory Concentration, Ca
[20] = 48 h, pH 6.8, read-out: Minimum Inhibitory Concentration, Ec
[21] = pH 8.2, nutrient agar, 30° C., 48 hours, read-out: Minimum Inhibitory Concentration, Ec
[22] = pH 6.8, read-out: Minimum Inhibitory Concentration, Pv
[23] = pH 8.2, read-out: Minimum Inhibitory Concentration, Pv
[24] = 48 h, pH 6.8, read-out: Minimum Inhibitory Concentration, PRD
[25] = 48 h, pH 8.2, read-out: Minimum Inhibitory Concentration, PRD
[26] = 48 h, pH 8.2, read-out: Minimum Inhibitory Concentration, Kp
[27] = pH 6.8, nutrient agar, 30° C., 48 hours, read-out: Minimum Inhibitory Concentration, Kp
[28] = 72 h, pH 5.5, read-out: Minimum Inhibitory Concentration, Fo
[29] = pH 6.8, read-out: Minimum Inhibitory Concentration, SC
[30] = pH 8.2, read-out: Minimum Inhibitory Concentration, SC
[31] = 48 h, pH 8.2, read-out: Minimum Inhibitory Concentration, Sa
[32] = pH 6.8, nutrient agar, 30° C., 48 hours, read-out: Minimum Inhibitory Concentration, Sa
[33] = pH 6.8, nutrient agar, 30° C., 48 hours, read-out: Minimum Inhibitory Concentration, Bs
[34] = pH 8.2, nutrient agar, 30° C., 48 hours, read-out: Minimum Inhibitory Concentration, Bs
[35] = pH 5.5, malt yeast agar, 30° C., 72 hours for fungi, read-out: Minimum Inhibitory Concentration, Tv

Structure (SMILES)	MIC [2, 17] [µg/mL]	MIC [2, 18] [µg/mL]	MIC [3, 19] [µg/mL]	MIC [4, 20] [µg/mL]	MIC [4, 21] [µg/mL]	MIC ([5]; pH 6.8, nutrient agar) [µg/mL]	MIC ([5]; pH 8.2, nutrient agar) [µg/mL]	MIC [6, 22] [µg/mL]	MIC [6, 23] [µg/mL]	MIC [8, 24] [µg/mL]	MIC [8, 25] [µg/mL]	MIC [9, 26] [µg/mL]	MIC [9, 27] [µg/mL]	MIC [10] [µg/mL]	MIC [11] [µg/mL]	MIC [12] [µg/mL]	MIC [14, 29] [µg/mL]	MIC [14, 30] [µg/mL]	MIC [15, 32] [µg/mL]	MIC [16] [µg/mL]	also measured
N#CSCSc1nsnc1-c1ccc(Cl)cc1 [Example XVIII, 4-(4-Chlorophenyl)-3-thiocyanatomethylthio-1,2,5-thiadiazole]	500 (≈ 1670 µM)	> 500	250 (≈ 834 µM)	500 (≈ 1670 µM)	250 (≈ 834 µM)	500 (≈ 1670 µM)	> 500	500 (≈ 1670 µM)	> 500	500 (≈ 1670 µM)	> 500	> 500	500 (≈ 1670 µM)	9 (≈ 30 µM)	9 (≈ 30 µM)	9 (≈ 30 µM)	500 (≈ 1670 µM)	> 500	500 (≈ 1670 µM)	9 (≈ 30 µM)	MIC ([1]; 48 h, pH 6.8, read-out: Minimum Inhibitory Concentration, Bs): 500 µg/mL (≈ 1670 µM); MIC ([1]; 48 h, pH 8.2, read-out: Minimum Inhibitory Concentration, Bs): 500 µg/mL (≈ 1670 µM); MIC ([7]; 72 h, pH 5.5, read-out: Minimum Inhibitory Concentration, Tv): 250 µg/mL (≈ 834 µM); MIC [13, 28]: 100 µg/mL (≈ 334 µM); MIC [15, 31]: > 500 µg/mL
N#CSCSc1nsnc1-c1ccccc1Cl [Example XX, 4-(2-Chlorophenyl)-3-thiocyanatomethylthio-1,2,5-thiadiazole]	500 (≈ 1670 µM)	> 500	250 (≈ 834 µM)	500 (≈ 1670 µM)	250 (≈ 834 µM)	500 (≈ 1670 µM)	> 500	500 (≈ 1670 µM)	> 500	500 (≈ 1670 µM)	> 500	> 500	500 (≈ 1670 µM)	9 (≈ 30 µM)	9 (≈ 30 µM)	9 (≈ 30 µM)	500 (≈ 1670 µM)	> 500	9 (≈ 30 µM)	9 (≈ 30 µM)	MIC [1, 33]: 9 µg/mL (≈ 30 µM); MIC [1, 34]: 9 µg/mL (≈ 30 µM); MIC [7, 35]: > 500 µg/mL; MIC [13, 28]: 25 µg/mL (≈ 83.4 µM); MIC ([15]; pH 8.2, nutrient agar, 30° C., 48 hours, read-out: Minimum Inhibitory Concentration, Sa): 9 µg/mL (≈ 30 µM)
N#CSCSc1nsnc1-c1ccc(F)cc1 [Example XXI, 4-(4-Fluorophenyl)-3-thiocyanatomethylthio-1,2,5-thiadiazole]	500 (≈ 1760 µM)	> 500	–	500 (≈ 1760 µM)	250 (≈ 882 µM)	–	> 500	500 (≈ 1760 µM)	> 500	–	> 500	> 500	500 (≈ 1760 µM)	9 (≈ 31.8 µM)	9 (≈ 31.8 µM)	9 (≈ 31.8 µM)	500 (≈ 1760 µM)	> 500	500 (≈ 1760 µM)	9 (≈ 31.8 µM)	MIC [1, 33]: 9 µg/mL (≈ 31.8 µM); MIC [1, 34]: 100 µg/mL (≈ 353 µM); MIC ([3]; pH 5.5, malt yeast agar, 30° C., 48 hours for yeast, read-out: Minimum Inhibitory Concentration, Ca): 9 µg/mL (≈ 31.8 µM); MIC [7, 35]: 25 µg/mL (≈ 88.2 µM); MIC ([8]; pH 6.8, nutrient agar, 30° C., 48 hours, read-out: Minimum Inhibitory Concentration, PRD): 250 µg/mL (≈ 882 µM); MIC ([13]; pH 5.5, malt yeast agar, 30° C., 72 hours for fungi, read-out: Minimum Inhibitory Concentration, Fo): 9 µg/mL (≈ 31.8 µM); MIC [15, 31]: > 500 µg/mL
